Data from patent US20240393319A1, “FLUORESCENT SENSORS AND METHODS OF MAKING AND USING” (Howard Hughes Medical Institute, priority 2023, published 2024).
“Also recorded” adds a separate entry of the source.

Experiments:
[1] = tested on: LMTK- cells (parental fibroblast cell line); assay: Green:red fluorescence (ATP) on treatment; format: cell-based, mouse; conditions: 10 mM 2dOG replacing glucose
Protocol: (§1) Rho° and the parental LMTK-cells were maintained in T-75 flasks with DMEM+10% FBS+1 mM pyruvate+5 μM uridine. Two days prior to transfection, they were split into a 24-well plate (half Rho°, half LMTK) at 0.6 and 0.1 million cells per well, respectively. Cells were transfected with iATPSnFR2.HaloTag variants by lipofectamine (0.5 μg DNA+2 μL lipofectamine 2000 per well) for 4-6 hours in DMEM lacking FBS or antibiotics. Transfection media was replaced with fresh DMEM+10% FBS+penicillin/streptomycin overnight. Cells were labeled with JFX650 HaloTag ligand by adding the fluorophore to 100 nM for an hour. Cells were washed with Mammalian Cell Imaging Buffer and imaged in a Cytation 5 imaging reader (BioTek) over the course of about 2 hours. After about 20 minutes of imaging to establish a baseline fluorescence, the culture plate was removed from the instrument and buffer was replaced with the query buffer. The equilibration buffer contained 10 mM glucose, and the query buffers contained 10 mM 2dOG.
(§2) Images were background subtracted and aligned for movement artefacts with the Gen5 software package that controls the Cytation 5 instrument. Images were assembled as TIF stacks and imported into ImageJ. […] Those ROIs were used to determine the ratio of green to red fluorescence for each well. […]

Rho° (ρ^0) cells = assay: Green:red fluorescence (ATP) on treatment; format: cell-based, mouse; conditions: 10 mM 2dOG replacing glucose
Protocol: as §1, §2

[2] = target: T1, iATPSnFR2.A95K.HaloTag-JFX650 (L1-VLVG, L2-ICV); cpSFGFP inserted in epsilon subunit of Bacillus subtilis PS3 F0-F1 ATPase; mutation A95K; SEQ ID NO: 5, without (Bacillus sp., UniProt P07678, A95K/DELINS96-108[…]/F67N/L78Y/N74K/V42K); assay: ATP/nucleotide titration, binding curve fits; conditions: stopped flow
T1 construct: polyhistidine tag (bacterial expression vector); made in house; host or cells: E. coli BL21 (DE3) pLysS
T1 sequence (P07678 other isoform, or with tags, fused parts or gaps V42K/F67N/N74K/L78Y): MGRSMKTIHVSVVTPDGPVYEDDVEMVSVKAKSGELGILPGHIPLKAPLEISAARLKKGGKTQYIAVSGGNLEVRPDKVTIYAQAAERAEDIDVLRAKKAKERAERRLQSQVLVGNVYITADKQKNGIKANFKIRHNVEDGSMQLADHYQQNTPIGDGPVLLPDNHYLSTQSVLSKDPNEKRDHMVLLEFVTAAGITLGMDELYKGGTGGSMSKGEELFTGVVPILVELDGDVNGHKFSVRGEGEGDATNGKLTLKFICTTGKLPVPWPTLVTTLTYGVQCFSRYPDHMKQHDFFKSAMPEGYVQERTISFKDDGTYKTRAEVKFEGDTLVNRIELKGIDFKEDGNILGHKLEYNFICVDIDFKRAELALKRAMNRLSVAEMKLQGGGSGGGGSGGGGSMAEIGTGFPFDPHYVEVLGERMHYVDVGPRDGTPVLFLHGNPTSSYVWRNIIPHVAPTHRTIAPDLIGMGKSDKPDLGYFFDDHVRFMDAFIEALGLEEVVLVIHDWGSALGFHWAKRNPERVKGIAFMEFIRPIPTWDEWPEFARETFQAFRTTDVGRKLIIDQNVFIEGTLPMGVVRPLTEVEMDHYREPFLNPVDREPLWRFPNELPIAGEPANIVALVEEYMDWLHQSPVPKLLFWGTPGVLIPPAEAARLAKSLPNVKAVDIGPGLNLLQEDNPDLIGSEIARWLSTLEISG
Text: (§3) (1A) Artistic rendering of iATPSnFR2.HaloTag made with PyMol. The N-terminal fragment (residues 1-109) of the epsilon subunit of ATPase (orange, based on 2E5Y.PDB) is fused to cpSFGFP (green). The C-terminus of cpSFGFP is fused to the residual ATP-binding helix (residues 110-129) of the epsilon subunit (pink), which itself is fused to HaloTag (cyan). “Linkers” are shown as sticks in yellow. […] HaloTag fluorophore is shown as sticks in red. […] (1C-1E) Ratio of green (iATPSnFR2) to red (HaloTag-JFX650) fluorescence in fibroblasts transfected with three affinity variants of iATPSnFR2-HaloTag. […] Cells were incubated for 21 minutes in buffer containing 10 mM glucose, and then switched to buffer containing 10 mM 2-deoxyglucose. (1C) Rho° cells. (1D) Parental LMTK cell line. (1E) Parental cell line treated with both 2-deoxyglucose and oligomycin.
(§4) ATP (black), CTP (cyan), GTP (grey), TTP (purple).
(§5) Purified protein was mixed with 1.1 molar equivalents of JFX650 HaloTag Ligand and incubated at room temperature for 1 hour and then at 4° C. overnight. Excess HaloTag Ligand was removed by gel filtration on a PD-10 column (GE Life Sciences) and re-concentrated by ultrafiltration.

[3] = target: T2, iATPSnFR2.S29W.A95K.HaloTag-JFX650 (L1-VLVG, L2-ICV); cpSFGFP inserted in epsilon subunit of Bacillus subtilis PS3 F0-F1 ATPase; mutations A95K, S29W; SEQ ID NO: (Bacillus sp., UniProt P07678, A95K/DELINS96-108[…]/F67N/L78Y/N74K/S29W/V42K); assay: ATP/nucleotide titration, binding curve fits; conditions: stopped flow
T2 construct: polyhistidine tag (bacterial expression vector); made in house; host or cells: E. coli BL21 (DE3) pLysS
T2 sequence (P07678 other isoform, or with tags, fused parts or gaps S29W/V42K/F67N/N74K/L78Y): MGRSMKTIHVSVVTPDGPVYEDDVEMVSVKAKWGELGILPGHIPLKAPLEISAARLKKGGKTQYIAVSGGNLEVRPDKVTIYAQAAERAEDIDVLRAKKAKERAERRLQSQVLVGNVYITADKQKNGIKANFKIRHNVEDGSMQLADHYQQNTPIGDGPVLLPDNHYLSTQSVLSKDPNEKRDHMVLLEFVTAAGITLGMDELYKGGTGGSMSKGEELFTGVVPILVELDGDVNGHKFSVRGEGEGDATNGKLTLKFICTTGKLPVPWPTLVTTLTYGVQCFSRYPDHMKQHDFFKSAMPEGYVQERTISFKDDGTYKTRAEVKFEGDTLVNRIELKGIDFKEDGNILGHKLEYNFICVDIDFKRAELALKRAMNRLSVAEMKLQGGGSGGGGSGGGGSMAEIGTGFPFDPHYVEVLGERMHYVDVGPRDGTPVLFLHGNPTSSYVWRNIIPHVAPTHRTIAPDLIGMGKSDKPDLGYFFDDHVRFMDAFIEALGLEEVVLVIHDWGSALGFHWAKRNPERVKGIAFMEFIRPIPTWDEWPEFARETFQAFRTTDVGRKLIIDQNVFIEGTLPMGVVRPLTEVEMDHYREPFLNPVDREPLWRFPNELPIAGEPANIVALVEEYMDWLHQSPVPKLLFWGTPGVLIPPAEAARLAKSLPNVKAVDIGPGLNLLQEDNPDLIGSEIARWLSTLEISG
Text: as §3, §4, §5

MaLion = conditions: cited from earlier work
HaloTag-JF635 = assay: Titration of HaloTag-JF635 with ATP; format: biochemical; conditions: FIG. 8B
[4] = target: T3, iATPSnFR2 (L1-VLVG, L2-ICV, A95A, A119L; cpSFGFP inserted in epsilon subunit of Bacillus subtilis PS3 F0-F1 ATPase; SEQ ID NO: 1 / SEQ ID NO: 13) (Bacillus sp. PS3, UniProt P07678); assay: Fluorescence response to ATP; format: biochemical
T3 construct: QD to VL at junction, L1-VLVG, L2-ICV; E. coli BL21(DE3)pLysS, Ni-NTA; HaloTag-JFX650 fusion possible
T3 sequence (P07678 whole entry, stated change not applied, the tested form may be a part): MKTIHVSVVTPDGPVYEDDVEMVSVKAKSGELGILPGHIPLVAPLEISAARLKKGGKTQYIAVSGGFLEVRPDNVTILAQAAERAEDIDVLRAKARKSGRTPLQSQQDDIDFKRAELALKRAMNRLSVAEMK
Protocol: (grey) and 37° C. (black). Error bars are s.d. of three technical replicates. Fluorescence was measured in a Cytation 5 plate reader, which has relatively rapid heating.

ChemoG-ATPSiR = conditions: read-out: affinity for ATP; cited from earlier work
[5] = tested on: iATPSnFR2.HaloTag-JFX650, three variants S29W.A95K, A95K and A95A.A119L; assay: Stopped-flow kinetics of ATP binding; format: biochemical, Bacillus subtilis PS3; conditions: ATP 123-10000 μM
Protocol: Panels are the sensor with a C-terminal fusion to HaloTag-JFX650. […] Fluorescence data collected on an Applied Photophysics SX-20 stopped-flow apparatus with 490 nm LED excitation and 525 nm long pass filter. Data points are average of 5 technical replicates.
Final concentration of protein was thus 0.1 μM.

DJ-1 KD neurons = assay: Synaptic endurance in DJ-1 knock-down neurons; format: cell-based, Sprague-Dawley rats; conditions: TZ
Text: (§6) FIG. 11A-11H are experimental results showing that PARK7/DJ-1 is necessary for PGK1 driven hypometabolic resilience.
(§7) An unbiased chemical screen recently led to the identification of an interaction between PGK1 and DJ-1, the product of the PARK7 gene, a genetic driver of familial PD. DJ-1 is a chaperone with strong structurally similarity to HSP31 but the precise clientele that it supports related to PD is poorly understood. To investigate whether DJ-1 has a functional impact on PGK1 function, we probed PGK1 rescue of hypometabolic synaptic function, but in absence of DJ-1. […] Furthermore, when glucose was substituted with a mixture of lactate and pyruvate, SV recycling kinetics in DJ-1 KD neurons was indistinguishable from control.

[6] = tested on: primary hippocampal neurons; assay: Synaptic endurance (vGlutI-pH) under repeated stimulation in 0.1 mM glucose; format: cell-based, rat
[7] = tested on: DJ-1 KD neurons, nerve terminals; assay: Presynaptic ATP in DJ-1 knock-down neurons; format: cell-based, Sprague-Dawley rats; conditions: TZ
Text: as §6, §7

[8] = tested on: nerve terminals of primary hippocampal neurons; assay: Presynaptic ATP dynamics with synapto-iATPSnFR2-miRFP670nano3; format: cell-based, rat; conditions: 0.1 mM glucose
Text: For synapto-iATPSnFR2-miRFP670nano3 experiments, nerve terminals were selected in the miRFP670nano3 channels, blind to the ATPsnfr channel and then background subtracted. The traces are reported as iATPsnfr2 to miRFP670nano3 ratio, Fratio.

[9] = tested on: synaptic boutons of hippocampal neurons; assay: Syn-iATPSnFR2.HaloTag imaging of ATP depletion in boutons; format: cell-based, rat; conditions: 5 mM glucose + 10 μM KA + 0.3 μM TTX
[10] = tested on: axonal mitochondria of primary hippocampal neurons; assay: Mitochondrial ATP in primary hippocampal neurons (mito-iATPSnFR2.A95A.A119L.HaloTag); format: cell-based, Sprague-Dawley rats; conditions: 10 μM KA in 5 mM glucose
Protocol: Primary neuronal cultures were prepared as previously described. Hippocampal CA1 to CA3 regions were dissected, dissociated, and plated onto poly-L-ornithine-coated coverslips. Plating media consisted of the minimal essential medium, 0.5% glucose, insulin (0.024 g/l), transferrin ([…]), GlutaMAX 1%, N-21 (2%), and fetal bovine serum (10%). After 1-3 days in vitro (DIV), cells were fed and maintained in media with the following modifications: cytosine β-D-arabinofuranoside (4 μM) and FBS 5%. Cultures were incubated at 37° C. in a 95% air/5% CO2 incubator. Calcium phosphate-mediated gene transfer was performed on DIV 6-8, and neurons were used for experiments on DIV 14-21.
Coverslips were loaded onto a custom chamber, mounted on a […], 2.5 mM KCl, […], 25 mM HEPES, 2 mM CaCl2), 2 mM MgCl2, 50 μM DL-2-amino-5-phosphonovaleric acid (APV, AP5), 10 μM 6-cyano-7-nitroquinoxaline-2,3-dione (CNQX), adjusted to pH 7.4. […] Fluorescence was stimulated with OBIS 488 nm LX or OBIS 637 nm LS lasers (Coherent) passing through a laser speckle reducer (LSR 3005 at 12° diffusion angle, Optotune). […]
Time series of imaging pairs (HaloTag and iATPSnFR2) were automated split into two independent image series using a custom-written Fiji routine to facilitate analysis. […] Synaptic boutons signals were analyzed using homemade script routines in Igor-pro v 6.3.7.2 (Wavemetric, Lake Oswego, OR, USA). […]

[11] = tested on: nerve terminals of hippocampal neurons; assay: Nerve terminal ATP in cultured neurons (iATPSnFR2.HaloTag-JFX650); format: cell-based, Sprague-Dawley rats

SMILES: OC[C@H]1OC(O)C[C@@H](O)[C@@H]1O (stereo partly shown) [2dOG, 2-deoxyglucose]
- change in green fluorescence (ATP) [1]: decreased fluorescence only in the parental LMTK-cells expressing the weakest affinity variant (A95A.A119L)
- change in green fluorescence (ATP) (Rho° (ρ^0) cells): green fluorescence rapidly dropped; also recorded: significant decrease in fluorescence

SMILES: Nc1ncnc2c1ncn2[C@@H]1O[C@H](COP(=O)(O)OP(=O)(O)OP(=O)(O)O)[C@@H](O)[C@H]1O [ATP]
- rate of ATP binding compared with A95A.A119L [2]: bind ATP faster than the A95A.A119L variant
- rate of ATP binding compared with A95A.A119L [3]: bind ATP faster than the A95A.A119L variant
- increase in fluorescence upon saturation with ATP (MaLion): ~5 fold
- sensitivity to ATP (HaloTag-JF635): sensitive to ATP, albeit with low ΔF/F
- ΔF/F in response to saturating ATP [4]: ~12
- Kd (ChemoG-ATPSiR): ~2000 µM
- time to bind ATP [5]: within a one or two seconds

SMILES: COc1cc2nc(N3CCN(C(=O)C4CCCO4)CC3)nc(N)c2cc1OC (stereo not shown) [TZ, Terazosin]
- recycling restoration: slowing of SV recycling after intense stimulation (DJ-1 KD neurons): could not be reversed
- synaptic endurance in low glucose ([6]; 1 μM): ineffective
- synaptic endurance in low glucose ([6]; 10 μM): conferred significant resilience
- synaptic endurance in low glucose ([6]; 100 μM): either ineffective or likely deleterious
- synaptic endurance in low glucose ([6]; 0.1 mM glucose, concentration not given): confers significant resilience
- synaptic endurance in low glucose ([6]; absence of DJ-1 (DJ-1 KD)): completely failed to restore synaptic endurance
- synaptic endurance in low glucose ([6]; neurons with shRNA targeting PGK1): eliminated
- acceleration of ATP production after burst of activity [7]: inability of TZ to accelerate ATP kinetics in absence of DJ-1
- resting (pre-stimulus) nerve terminal ATP [8]: slightly elevated; also recorded: higher starting ATP
- ATP depletion during stimulation ([8]; 600 APs at 10 Hz): blunted; also recorded: significantly smaller activity-induced drops in ATP
- ATP production following activity ([8]; DJ-1 KD neurons): no acceleration of ATP production; also recorded: inability of TZ to accelerate ATP kinetics

SMILES: CC(C)[C@H]1CC[C@@]2(CO2)[C@H]2C(=O)OCC(C(=O)O)=C[C@H]12 [koningic acid]
- average green to red fluorescence ratio in boutons [9]: gradually declined over a 5-10 min period
- change in mitochondrial ATP [10]: gradual decrease of [ATP]
- decline of average green to red ratio (ATP) without activity ([11]; 10 μM KA with 0.3 μM TTX): gradually declined over a 5-10 min period
- time for ATP depletion in single boutons after delay ([11]; 10 μM KA with 0.3 μM TTX): 10 to 20 s
- change in fluorescence (ATP) during action potential firing ([11]; 10 μM KA, 5 mM glucose, 50 Hz 6 sec): even greater decrease in fluorescence that did not recover within the minute and a half observation window
